Laboratory results: patent US8940722B2, “Compounds for modulation of orphan nuclear receptor RAR-related orphan receptor-gamma (RORγ, NR1F3) activity and for the treatment of chronic inflammatory and autoimmune disease” (Phenex Pharmaceuticals AG, priority 2010, dated 2015)

Columns and labels:
[1] = target: T1, RORγ ligand binding domain (LBD) (Homo sapiens, UniProt P51449); assay: TR-FRET Activity Assay (RORγ-LBD / coactivator peptide interaction); format: biochemical; conditions: Table 2; read-out: RORγ activity in the TR-FRET Activity Assay (IC50 FRET), Group
T1 construct: made in house; host or cells: E. coli BL-21 (BL3), vector pDEST15
T1 sequence (P51449 269-508 limits assumed): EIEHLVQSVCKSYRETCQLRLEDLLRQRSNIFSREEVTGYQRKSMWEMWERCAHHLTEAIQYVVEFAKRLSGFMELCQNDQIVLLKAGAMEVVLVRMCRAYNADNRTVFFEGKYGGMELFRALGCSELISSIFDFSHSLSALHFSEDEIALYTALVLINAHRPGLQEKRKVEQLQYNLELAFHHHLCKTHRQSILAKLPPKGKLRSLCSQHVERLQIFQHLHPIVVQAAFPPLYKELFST
Source text: This method measures the ability of putative ligands to modulate the interaction between the purified bacterial expressed RORγ ligand binding domain (LBD) and synthetic N-terminally biotinylated peptides which are derived from nuclear receptor coactivator proteins such as but not limited to SRC1 (NcoA1), SRC2 (NcoA2, TIF2), SRC3 (NcoA3), PGC1α, PGC1β, CBP, GRIP1, TRAP220, RIP140.
The ligand-binding domain (LBD) of RORγ was expressed as fusion protein with GST in […] cells using the vector pDEST15. Cells were lysed by lysozyme-treatment and sonication, and the fusion proteins purified over glutathione sepharose (Pharmacia) according to the manufacturers instructions. For screening of compounds for their influence on the RORγ-peptide interaction, the LANCE technology (Perkin Elmer) was applied. This method relies on the binding dependent energy transfer from a donor to an acceptor fluorophor attached to the binding partner of interest. For ease of handling and reduction of background from compound fluorescence LANCE technology makes use of generic fluorophore labels and time resolved detection assays were done in a final volume of 25 μL in a 384 well plate, in a Tris-based buffer system (20 mM Tris-HCl pH6.8; 60 mM KCl, 1 mM DTT; 5 mM MgCl2; 35 ng/μL BSA), containing 20-60 ng/well recombinantly expressed RORγ-LBD fused to GST, 200-600 nM N-terminally biotinylated peptide, 200 ng/well Streptavidin-xIAPC conjugate (Prozyme) and 6-10 ng/well Eu W1024—antiGST (Perkin Elmer). DMSO content of the samples was kept at 1%.
After generation of the Tris-based buffer system, the potentially RORγ modulating ligands were diluted. […] The LANCE signal was detected by a Perkin Elmer EnVision™ Multilabel Counter. The results were visualized by plotting the ratio between the emitted light at 665 nm and 615 nm. […] Ligands that promote the complex formation induce a concentration-dependent increase in time-resolved fluorescent signal.
To assess the antagonistic potential of the compounds, IC50 values were determined using a Ligand Sensing Assay based on Time-resolved Fluorescence Energy Transfer (TR-FRET) as described above. The normalised TR-FRET assay values, using the following equation: 1000*665 nm measurement value/615 nm measurement value, were transferred to the program GraphPad Prism to generate graphs and dose response curves using the following equation: • Equation: Sigmoidal dose-response (variable slope) Y=Bottom+(Top−Bottom)/(1+10^((Log EC50−X)*HillSlope))
This is identical to the “four parameter logistic equation”. The IC50 values are calculated using this equation.

[2] = test system: plasma cytokines in C57/bl6 mice; assay: In vivo assay for suppression of IL-17 (MOG/CFA/PTX immunisation); parameters: species or system mouse; conditions: 2×10 mg/(kg×day) i.p., MOG peptide+CFA+PTX immunised mice
Source text: All animal models that mimic human autoimmune disease suffer from the issue that they are long lasting, require substantial amounts of exploratory drugs and do mostly not allow for monitoring IL-17 production in a simple setup. We therefore developed an in vivo assay based on an immunisation protocol that stems from a typical mouse Experimental Autoimmune Encephalomyelitis (EAE) model. Such EAE models employ the administration of certain autoimmunogenic peptides derived from i.e. Myelin Oligodendrocyte Glycoprotein (MOG) in conjunction with co-administration of a strong immune stimulants such as Complete Freund's Adjuvans (CFA) and a booster for T-cell activation such as Pertussis Toxin (PTX) to induce an autoimmune response. IL-17 producing Th17 cells are elevated under these conditions and about 14-21 days after the immunisation macroscopic signs of CNS inflammation such as impairment of movement become visible.
This immunisation scheme, while disturbing the regular development of macroscopic EAE symptoms in mice, allows for the monitoring of proinflammatory cytokines in plasma, specifically for IL-17, IL-2 and Interferon gamma IFNγ. […]

activated human PBMCs = assay: PBMC stimulation and cytokine release assay; format: cell-based
Procedure: Cryopreserved human PBMCs were purchased from Cellular Technology Ltd. thawed and counted as outlined in the supplier's protocol using CTL-anti-Aggregate-Wash-Supplement. Cells were washed and plated in CTL's serum free medium to −10^5 cells/well in anti-human CD3 coated 96 well T-cell activation plates (BD; Cat. No: 354725) together with anti-human CD28 antibody (BD; Cat. No: 555725) to a final concentration of 2 μg/mL. Samples were either treated with vehicle (0.1%) or small chemical molecules of the indicated concentrations.
For end point determination of cytokine production the cells were incubated for 72 h at 37° C. and 5% CO2. Supernatants were harvested and stored frozen at −80° C. until further processing. The cells were assayed for viability by incubation for 15 min with fluoresceindiacetate (5 μg/mL in PBS) and subsequent measurement of fluorescein (485 nm/535 nm).
Cytokine concentrations in the supernatants were determined in bead-based multiplex ELISA assays using Procarta Cytokine Assay Kits (Panomics) following the manufacturers instructions. The samples were read in a Luminex100 device and analysed with the IS Luminex 2.3 Software using a 5 parameter non-linear regression curve-fitting model.

Compound	IC50 [1]	further results
CN(C)C(=O)C[C@@H]1COCc2ccccc2CN1S(=O)(=O)c1cccc2cccnc12 [Preparative Example 26, (R)—N,N-Dimethyl-2-(5-(quinolin-8-ylsulfonyl)-3,4,5,6-tetrahydro-1H-benzo[f][1,4]oxazocin-4-yl)acetamide]	> 2 µM	–
Cc1nnc(C[C@@H]2COCc3ccccc3CN2S(=O)(=O)c2cccc3cccnc23)o1 [Preparative Example 27, (R)-4-((5-Methyl-1,3,4-oxadiazol-2-yl)methyl)-5-(quinolin-8-ylsulfonyl)-3,4,5,6-tetrahydro-1H-benzo[f][1,4]oxazocine]	> 2 µM	–
O=S(=O)(c1ccccc1OC(F)(F)F)N1Cc2nnc(C(F)(F)F)n2CCC[C@H]1Cc1ccccc1 [Preparative Example 31, (S)-8-Benzyl-9-((2-(trifluoromethoxy)phenyl)sulfonyl)-3-(trifluoromethyl)-5,6,7,8,9,10-hexahydro-[1,2,4]triazolo[4,3-a][1,4]diazocine]	> 2 µM	–
COc1ccccc1S(=O)(=O)N1Cc2ccccc2COCC1Cc1ccc(Br)cc1 (stereo not shown) [compound 3]	> 2 µM	–
CN1Cc2ccccc2CN(S(=O)(=O)c2cccc3cccnc23)[C@H](Cc2ccccc2)C1=O [compound 9]	> 2 µM	–
O=S(=O)(c1cc(F)ccc1N1CCOCC1)N1Cc2ccccc2COCC1Cc1ccccc1 (stereo not shown) [compound 12]	> 2 µM	–
O=S(=O)(c1cccc2cccnc12)N1Cc2cccc(O)c2COCC1Cc1ccccc1 (stereo not shown) [compound 13]	> 2 µM	–
COc1ccccc1S(=O)(=O)N1Cc2ccccc2CS(=O)(=O)CC1Cc1ccccc1 (stereo not shown) [compound 29]	> 2 µM	–

The next lines start with results.

IC50 [1]	Compound	further results
< 0.5 µM	O=S(=O)(c1cccc2cccnc12)N1Cc2ccccc2COCC1Cc1ccccc1 (stereo not shown) [1/8]	plasma IFNγ levels (FIG. 1) [2]: increase; plasma IL-17 levels (FIG. 1) [2]: nearly completely reduced
< 0.5 µM	O=S(=O)(c1cccc2cccnc12)N1Cc2ccccc2COCC1CC1CCCC1 (stereo not shown) [1/44]	effects on Th17-cytokine production in activated human PBMCs (FIG. 2) (activated human PBMCs): selective inhibitory effects
0.5 to 2 µM	O=S(=O)(c1cccc2cccnc12)N1Cc2ccccc2COC[C@H]1COCC1CCC1 [16/3]	effects on Th17-cytokine production in activated human PBMCs (FIG. 2) (activated human PBMCs): selective inhibitory effects
0.5 to 2 µM	O=S(=O)(c1cccc2cccnc12)N1Cc2ccccc2COC[C@H]1COCC1CC1 [16/4]	effects on Th17-cytokine production in activated human PBMCs (FIG. 2) (activated human PBMCs): selective inhibitory effects
< 0.5 µM	COc1ccccc1S(=O)(=O)N1Cc2ccccc2COCC1Cc1ccccc1 (stereo not shown) [Preparative Example 1, 4-Benzyl-5-(2-methoxyphenylsulfonyl)-3,4,5,6-tetrahydro-1H-benzo[f][1,4]-oxazocine]	effects on Th17-cytokine production in activated human PBMCs (FIG. 2) (activated human PBMCs): selective inhibitory effects
< 0.5 µM	O=S(=O)(c1cccc2cccnc12)N1Cc2ccccc2COC[C@H]1CC1CC1 [Preparative Example 20, (R)-4-(Cyclopropylmethyl)-5-(quinolin-8-ylsulfonyl)-3,4,5,6-tetrahydro-1H-benzo[f][1,4]oxazocine]	–
> 2 µM	CC(C)(O)C[C@@H]1COCc2ccccc2CN1S(=O)(=O)c1cccc2cccnc12 [Preparative Example 22, (R)-2-Methyl-1-(5-(quinolin-8-ylsulfonyl)-3,4,5,6-tetrahydro-1H-benzo[f][1,4]oxazocin-4-yl)propan-2-ol]	–
0.5 to 2 µM	COc1ccccc1S(=O)(=O)N1Cc2ccccc2OCCC1Cc1ccccc1 (stereo not shown) [compound 4]	–
< 0.5 µM	O=S(=O)(c1cccc2cccnc12)N1Cc2cccnc2COC[C@H]1Cc1ccccc1 [compound 6]	–
0.5 to 2 µM	O=S(=O)(c1cccc2cccnc12)N1Cc2ccccc2COC[C@H]1Cc1cccnc1 [compound 7]	–
0.5 to 2 µM	O=S(=O)(c1cccc2cccnc12)N1Cc2ccccc2CCCC1Cc1ccccc1 (stereo not shown) [compound 30]	–
